The source of these data is patent US20240216317A1, “COMPOSITION FOR PREVENTING, AMELIORATING OR TREATING INFLAMMATORY BOWEL DISEASE COMPRISING COMPOUND ISOLATED FROM ISODON EXCISUS AS EFFECTIVE COMPONENT” (HEALINNOLS INC., priority 2022, published 2024).

For one assay, the system named is IL-1β. Description: IL-1β mRNA expression (qPCR) in zebra fish animal model of DSS-induced inflammatory bowel disease. Type of assay: in vivo, zebra fish (Danio rerio: AB). To be noted: zebra fish larvae, 0.5% DSS, 5 hours treatment; Chemical formula 1 0.3 μM and 1 μM; FIG. 5. On the procedure:
As a zebra fish animal model of inflammatory bowel disease, wild-type zebra fish (Danio rerio: AB) was used, which was kept in an exclusive breeding facility at conditions including light/dark cycle of 14 hours/10 hours and temperature of 28° C. All the animal experiments were carried out according to the protocol of Ethics Committee for Animal Expectation, Healinno-LS (Registration No.: AEC-20210720-0001), and all the materials were sterilized first before they are used for experiment.
According to a treatment with 0.5% DSS (dextran sulfate sodium, M.W. 36,000-50,000, #160110, MP), which induces “ulcerative colitis” as inflammatory bowel disease by creating a damage in colonic epithelial cells, a zebra fish was induced to have inflammatory bowel disease. Then, by threating the zebra fish with the compound represented by Chemical formula 1 of the present invention at different concentrations (0.3 μM and 1 μM), inhibitory activity on inflammatory bowel disease was examined. […]
The zebra fish larvae which have been treated with the compound represented by Chemical formula 1 of the present invention were then added with TRIzol reagent (300 μl), and then homogenized by using a tissue homogenizer (G20, GINKO). […] Purity and concentration were measured by using a microplate reader (FLUOstar omega, BMG Labtech), and the extracted total RNA was kept at −80° C. […]
For orientation: In qPCR the cycle at which signal appears reflects the starting amount.

Assay [1] has as its system animal model of DSS-induced inflammatory bowel disease. Description: Therapeutic effect in mouse model of DSS-induced inflammatory bowel disease (body weight, DAI, colon length). The assay is classed as in vivo, mouse (C57BL/6). Particulars: 5-ASA 100 mg/kg oral; for DAI / Colon length: Day 8, mouse, 2.5% DSS, Compound 1 2 mg/kg intraperitoneal; for DAI: 7 days, DSS group 11.75 ± 0.15; for Colon length: DSS group 4.9, normal control 8.4; for rate of body weight loss compared to group administered with DSS: mouse, 2.5% DSS 7 days, Chemical formula 1 2 mg/kg intraperitoneal, once a day for 7 days, FIG. 6. From the text:
As a mouse with induced inflammatory bowel disease, 6 week-old C57BL/6 was used, and the animal was induced to have the disease by administration of DSS (dextran sulfate sodium, MW 36000 to 50000, MP Biomedicals), Test groups were divided into the followings; normal control which has not been treated with any chemical (3 animals); group administered with DSS (6 animals); group administered with DSS+5-ASA (5-aminosalicylic acid, Sigma) (6 animals); and group administered with DSS+compound represented by Chemical formula 1 of the present invention (6 animals).
Inflammatory bowel disease is generally evaluated in terms of the disease activity index (DAI) based on clinical signs like body weight loss, diarrhea, and bloody feces. DAI is measured by giving a score to each of body weight loss rate, state of feces, and state of bloody feces (Table 1).
In this example, evaluation was made for 7 days for each test group. For all test groups except normal control, 100 ml of drinking water with 2.5% DSS were supplied for 7 days, while the water exchange was made every 2 days, to induce inflammatory bowel disease. The group administered with 5-ASA was orally administered, once a day for 7 days, with 100 mg/kg 5-ASA dispersed in 2.5% CMC (carboxymethylcellulose sodium, Sigma). The compound represented by Chemical formula 1 of the present invention (2 mg/kg) was administered via intraperitoneal injection, once a day for 7 days. From the first day of test, mouse of each test group was weighed to measure the rate of body weight loss. […] However, the weight loss was observed from Day 5 and thereafter in every test group induced to have inflammatory bowel disease by a treatment with DSS.
Evaluation of disease activity index (DAI) was also carried out, once a day from the first day of the test. From all test groups having inflammatory bowel disease induced by DSS treatment except normal control which has not been treated with any chemical, higher DAI was shown from Day 5 and thereafter.
Sum of each item analyzed on Day 8 based on the evaluation index of Table 1 was described as disease activation index (DAI) in Table 2.
With regard to the inflammatory response to inflammatory bowel disease, level of the response can be evaluated in terms of the decrease in colon length. Mouse in each test group was sacrificed on Day 8 and the colon was removed from the animal. Colon length was measured from the removed colon.

`COC(=O)C[C@H](OC(=O)/C=C/c1ccc(O)c(O)c1)c1ccc(O)c(O)c1` [Compound 1, 3-[3,4-dihydroxyphenyl]acrylic acid 1-[3,4-dihydroxyphenyl]-2-methoxycarbonylethyl ester]: in the assay on IL-1β, the “expression amount of IL-1β compared to DSS model group” value is recorded as “statistically significantly lower”. For the same compound, in assay [1], the DAI was 8.75 ± 0.21, the Colon length came to 7.4 cm and the “rate of body weight loss compared to group administered with DSS” value is “lower rate of body weight loss”.

Take `Nc1ccc(O)c(C(=O)O)c1` [Compound 5-ASA, 5-aminosalicylic acid, reference compound]: the “expression amount of IL-1β compared to DSS model group” value in the assay with IL-1β is listed as “statistically significantly lower”. Also, in assay [1], the DAI was 10.67 ± 0.19, the Colon length is 5.7 cm and the “rate of body weight loss compared to group administered with DSS” value was “lower rate of body weight loss”.
